Legend:
Rattus norvegicus [1] = species on record: Rattus norvegicus
Description: Lengths of bleeding ulcer of drug-administered group

Rattus norvegicus [2] = assay: Dose required for 30% inhibition of carrageenan-induced edema; assay type: functional
THP-1 [3] = assay: In vitro effect on production of lipopolysaccharide (LPS) -induced IL1-beta in human THP-1 cells; assay type: functional, cell-based
Rattus norvegicus [4] = species on record: Rattus norvegicus; assay: Dose required for Ulcerogenic effect; assay type: functional
Rattus norvegicus [5] = assay: Percent inhibition of carrageenan-induced foot-pad edema at 30 mg/kg po; assay type: functional
Rattus norvegicus [6] = species on record: Rattus norvegicus; assay: Dose required for 30% inhibition of adjuvant-induced arthritis; assay type: functional
Rattus norvegicus [7] = species on record: Rattus norvegicus; assay: In vitro effect on production of calcium ionophore (A23187) -induced Leukotriene B4 (LTB4) in rat peritoneal cells; assay type: functional, cell-based
Rattus norvegicus [8] = assay: Percent inhibition of adjuvant-induced arthritis at 10 mg/kg poP<0.01; assay type: functional; settings: read-out: Inhibition
Cyclooxygenase = target: T1, Cyclooxygenase (Rattus norvegicus, UniProt P35355+Q63921)
T1 sequence (P35355 whole entry): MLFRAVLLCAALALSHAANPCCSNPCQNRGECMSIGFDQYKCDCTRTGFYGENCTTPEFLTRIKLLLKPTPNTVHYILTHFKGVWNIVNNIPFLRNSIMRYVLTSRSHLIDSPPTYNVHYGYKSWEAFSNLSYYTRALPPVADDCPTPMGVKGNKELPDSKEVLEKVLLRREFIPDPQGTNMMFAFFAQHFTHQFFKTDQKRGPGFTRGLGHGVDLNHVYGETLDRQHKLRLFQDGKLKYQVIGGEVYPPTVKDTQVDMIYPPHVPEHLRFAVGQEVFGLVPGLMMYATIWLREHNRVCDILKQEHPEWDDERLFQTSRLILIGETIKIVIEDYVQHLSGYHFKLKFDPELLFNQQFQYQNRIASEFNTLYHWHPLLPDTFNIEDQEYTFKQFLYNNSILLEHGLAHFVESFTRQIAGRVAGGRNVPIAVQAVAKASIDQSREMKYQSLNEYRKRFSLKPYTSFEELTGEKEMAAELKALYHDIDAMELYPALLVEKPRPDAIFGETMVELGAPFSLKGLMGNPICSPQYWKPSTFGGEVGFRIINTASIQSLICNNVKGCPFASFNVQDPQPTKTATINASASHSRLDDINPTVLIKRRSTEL
T1 sequence (Q63921 whole entry): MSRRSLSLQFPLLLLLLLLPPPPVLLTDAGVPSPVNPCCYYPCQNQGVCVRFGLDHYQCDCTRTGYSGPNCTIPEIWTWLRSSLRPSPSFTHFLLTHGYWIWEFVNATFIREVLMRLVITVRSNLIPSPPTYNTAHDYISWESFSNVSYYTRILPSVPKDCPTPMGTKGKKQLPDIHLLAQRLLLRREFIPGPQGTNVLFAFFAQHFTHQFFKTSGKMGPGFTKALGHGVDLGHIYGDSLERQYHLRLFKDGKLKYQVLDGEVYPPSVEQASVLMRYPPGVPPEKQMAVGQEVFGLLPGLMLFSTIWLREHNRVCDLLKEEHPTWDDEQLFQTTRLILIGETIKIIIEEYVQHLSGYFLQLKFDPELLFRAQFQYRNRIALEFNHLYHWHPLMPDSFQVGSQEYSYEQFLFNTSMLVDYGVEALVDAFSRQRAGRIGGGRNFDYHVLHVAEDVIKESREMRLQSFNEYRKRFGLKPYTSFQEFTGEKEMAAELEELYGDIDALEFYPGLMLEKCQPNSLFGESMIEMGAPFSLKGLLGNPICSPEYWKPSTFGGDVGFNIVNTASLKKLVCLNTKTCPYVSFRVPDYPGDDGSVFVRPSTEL
Description: In vitro inhibitory effect on production of prostaglandin E2 (PGE2) in rat synovial cells.

Rattus norvegicus [9] = species on record: Rattus norvegicus; assay: In vitro inhibitory effect on production of, calcium ionophore (A23187) -induced Leukotriene B4 (LTB4) in rat peritoneal cells; assay type: functional, cell-based
Rattus norvegicus [10] = species on record: Rattus norvegicus; assay: In vitro inhibitory effect on production of, Prostaglandin E2 (PGE2) in rat synovial cells; assay type: functional
THP-1 [11] = assay: In vitro inhibitory effect on production of, lipopolysaccharide (LPS) -induced IL1-beta in human THP-1 cells; assay type: functional, cell-based
Rattus norvegicus [12] = assay: Percent inhibition of adjuvant-induced arthritis at 10 mg/kg po; assay type: functional
Rattus norvegicus [13] = species on record: Rattus norvegicus; assay: Inhibitory effect for increase in plasma prostaglandin E2 (PGE2) level after arachidonic acid (AA) injection into COX-2 lipopolysaccharide-treated rats; assay type: functional
Rattus norvegicus [14] = species on record: Rattus norvegicus; assay: Inhibitory effect for increase in plasma prostaglandin E2 (PGE2) level after arachidonic acid (AA) injection into COX-1 non-lipopolysaccharide-treated rats; assay type: functional
Rattus norvegicus [15] = species on record: Rattus norvegicus; assay: Inhibitory effect for increase in plasma prostaglandin E2 (PGE2) level after arachidonic acid (AA) injection intoCOX-1 non-lipopolysaccharide-treated rats; assay type: functional

IC50 (THP-1 [3]) [µM]	IC50 (Rattus norvegicus [7]) [µM]	IC50 (Cyclooxygenase) [µM]	SMILES	inhibition in vivo at 30 mg/kg (Rattus norvegicus [5]) [%]	also measured
28	2.8	0.0091	CN1CC/C(=C\c2cc(C(C)(C)C)c(O)c(C(C)(C)C)c2)S1(=O)=O	61.4	Ulcer index (Rattus norvegicus [1]): 26.8 mm; ED30 (Rattus norvegicus [2]): 5.4 mg/kg; Dose (Rattus norvegicus [4]): 400 mg/kg; ED30 (Rattus norvegicus [6]): 0.64 mg/kg; inhibition in vivo at 10 mg/kg (Rattus norvegicus [8]): 39.4%
		0.7	CC(C)(C)c1cc(/C=C2/CCN(O)S2(=O)=O)cc(C(C)(C)C)c1O		
20	6	0.024	CC(C)(C)c1cc(/C=C2\CCN(C(=O)NO)S2(=O)=O)cc(C(C)(C)C)c1O	14.9	
		0.32	CC(C)N1CC/C(=C\c2cc(C(C)(C)C)c(O)c(C(C)(C)C)c2)S1(=O)=O		
10	2.5	0.0021	CCN1CC/C(=C/c2cc(C(C)(C)C)c(O)c(C(C)(C)C)c2)S1(=O)=O	7.3	inhibition in vivo at 10 mg/kg (Rattus norvegicus [12]): 11.4%
		0.24	CC(C)(C)c1cc(/C=C2\CCN(CCO)S2(=O)=O)cc(C(C)(C)C)c1O		
19	1.9	0.013	CCCN1CC/C(=C\c2cc(C(C)(C)C)c(O)c(C(C)(C)C)c2)S1(=O)=O	0.3	inhibition in vivo at 10 mg/kg (Rattus norvegicus [12]): 11.4%
28	4.9	< 0.001	CC(=O)N1CC/C(=C\c2cc(C(C)(C)C)c(O)c(C(C)(C)C)c2)S1(=O)=O	21	
23	0.8	0.012	CCCN1CC/C(=C/c2cc(C(C)(C)C)c(O)c(C(C)(C)C)c2)S1(=O)=O	11.2	

Further lines, the compound ahead of its results:

SMILES	IC50 (THP-1 [3]) [µM]	IC50 (Rattus norvegicus [7]) [µM]	IC50 (Cyclooxygenase) [µM]	inhibition in vivo at 30 mg/kg (Rattus norvegicus [5]) [%]	also measured
CC(C)(C)c1cc(/C=C2\CCN(c3ccncc3)S2(=O)=O)cc(C(C)(C)C)c1O			0.41		
CCN1CC/C(=C\c2cc(OC)c(O)c(OC)c2)S1(=O)=O					IC50 (Rattus norvegicus [9]): 2.6 µM; IC50 (Rattus norvegicus [10]): > 1 µM; IC50 (THP-1 [11]): > 100 µM
CC(C)(C)c1cc(/C=C2\CCN(c3cccnc3)S2(=O)=O)cc(C(C)(C)C)c1O			0.32		
NC(=O)N1C(=O)/C(=C(\O)c2cccs2)c2cc(Cl)ccc21 [TENIDAP]	16	45	0.053		Ulcer index (Rattus norvegicus [1]): 12.9 mm; ED30 (Rattus norvegicus [2]): 4 mg/kg; ED50 (Rattus norvegicus [13]): 0.05 mg/kg; Dose (Rattus norvegicus [4]): 30 mg/kg; ED30 (Rattus norvegicus [6]): 1 mg/kg; ED50 (Rattus norvegicus [14]): 0.025 mg/kg
CC(C)(C)c1cc(/C=C2\CCNS2(=O)=O)cc(C(C)(C)C)c1O	> 100	> 100	0.03	17.2	inhibition in vivo at 10 mg/kg (Rattus norvegicus [12]): 8.8%
CON(C)C(=O)N1CC/C(=C\c2cc(C(C)(C)C)c(O)c(C(C)(C)C)c2)S1(=O)=O	> 100	28	0.1	11.2	
CC(C)(C)c1cc(/C=C2\CCN(c3ccccn3)S2(=O)=O)cc(C(C)(C)C)c1O			1		
COc1ccc2c(c1)c(CC(=O)O)c(C)n2C(=O)c1ccc(Cl)cc1 [INDOMETHACIN]	> 100	> 100			ED30 (Rattus norvegicus [2]): 0.8 mg/kg; Dose (Rattus norvegicus [4]): 30 mg/kg; ED30 (Rattus norvegicus [6]): 0.06 mg/kg; ED50 (Rattus norvegicus [15]): 0.37 mg/kg; ED50 (Rattus norvegicus [14]): 0.37 mg/kg
CCN1CC/C(=C\c2cc(C)c(O)c(C)c2)S1(=O)=O					IC50 (Rattus norvegicus [9]): 21 µM; IC50 (Rattus norvegicus [10]): > 1 µM; IC50 (THP-1 [11]): > 100 µM
CC(C)(C)c1cc(/C=C2\CCN(c3ccc(Cl)cc3)S2(=O)=O)cc(C(C)(C)C)c1O	> 100	21	< 0.001	6.3	

Reference: ChEMBL document CHEMBL1133187, “Novel antiarthritic agents with 1,2-isothiazolidine-1,1-dioxide (gamma-sultam) skeleton: cytokine suppressive dual inhibitors of cyclooxygenase-2 and 5-lipoxygenase” (J Med Chem, 2000)
